The values that follow come from patent publication US9586931B2 (Merck Sharp & Dohme Corp., priority 2012, dated 2017).

A word on the IC50: it is the midpoint of a concentration-inhibition curve.

Each structure is given as a SMILES string.

For the experiment, the target named is T1, recombinant human GST-Syk (Homo sapiens, UniProt P43405).
T1 construct: purchased Carna Biosciences 08-176
As to the kind of experiment: Homogeneous Time-Resolved Fluorescence (HTRF) assay for the recombinant human Syk enzyme. The format is biochemical. The note with it: recombinant human GST-Syk 5 pM, ATP 25 μM, 10-dose titration 10 μM to 0.508 nM; read-out: rhSYK Activity IC50. An outline of the steps:
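GST-hSyk fusion protein phosphorylated a peptide for 45 min at room temperature. The reaction was quenched with 2 nM Eu-anti-phosphotyrosine antibody and 70 nM SA-APC in 15 mM Tris pH 7.5, 40 mM EDTA, 0.01% Tween 20. The HTRF signal was read after 30 min.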
Background: TR-FRET usually uses a lanthanide donor and a delayed reading to cut background.
With `Cc1cc(Nc2cc(C(F)(F)F)ccn2)nc(-c2nnc(C)n2C)c1` [Example 16.1, 6-(4,5-dimethyl-4H-1,2,4-triazol-3-yl)-4-methyl-N-[4-(trifluoromethyl)pyridin-2-yl]pyridin-2-amine], the IC50 worked out at 650 nM.

With `Cc1cc(Nc2nccc(C(F)(F)F)n2)cc(-n2cc(CC(O)CO)nn2)c1` (centres unmarked) [Example 15.7, 3-[1-(3-methyl-5-{[4-(trifluoromethyl)pyrimidin-2-yl]amino}phenyl)-1H-1,2,3-triazol-4-yl]propane-1,2-diol], the IC50 stood at 53.1 nM. To `Cc1cc(Nc2ncc(F)c(C(F)F)n2)cc(-c2cn(C3CCCCC3O)nn2)c1` (single isomer, unassigned) [Example 7.29, 2-[4-(3-{[4-(difluoromethyl)-5-fluoropyrimidin-2-yl]amino}-5-methylphenyl)-1H-1,2,3-triazol-1-yl]cyclohexanol] belongs 14.3 nM; to `Cc1cc(Nc2nccc(C)n2)cc(-c2cn(C[C@](C)(O)CO)nn2)c1` (single isomer, unassigned) [Example 21.2, 2-methyl-3-(4-(3-methyl-5-((4-methylpyrimidin-2-yl)amino)phenyl)-1H-1,2,3-triazol-1-yl)propane-1,2-diol], 2 nM. The value for `Cc1cc(Nc2nccc(C(F)(F)F)n2)cc(-n2cc([C@]3(O)CC[C@H](C(=O)O)CC3)nn2)c1` [Example 15.3, trans-4-hydroxy-4-[1-(3-methyl-5-{[4-(trifluoromethyl)pyrimidin-2-yl]amino}phenyl)-1H-1,2,3-triazol-4-yl]cyclohexanecarboxylic acid] was 232 nM; that for `Cc1cc(Nc2nccc(C(F)(F)F)n2)cc(-c2cn(CC(O)C(F)(F)F)nn2)c1` (racemic) [Example 5.54, 1,1,1-trifluoro-3-[4-(3-methyl-5-{[4-(trifluoromethyl)pyrimidin-2-yl]amino}phenyl)-1H-1,2,3-triazol-1-yl]propan-2-ol] was 29.4 nM. Turning to `Cc1cc(Nc2cc(C(F)F)ccn2)nc(-c2cn(CC(C)(O)CO)nn2)c1` (centres unmarked) [Example 21.39, 3-(4-(6-((4-(difluoromethyl)pyridin-2-yl)amino)-4-methylpyridin-2-yl)-1H-1,2,3-triazol-1-yl)-2-methylpropane-1,2-diol], the concentration for half-maximal inhibition (IC50) came to 1.8 nM. The value for `CC(O)(CO)Cn1cc(-c2cccc(Nc3nccc(C(F)(F)F)n3)c2)nn1` (single isomer, unassigned) [Example 21.5, 2-methyl-3-[4-(3-{[4-(trifluoromethyl)pyrimidin-2-yl]amino}phenyl)-1H-1,2,3-triazol-1-yl]propane-1,2-diol] was 47 nM.

Consider `Cc1cc(Nc2cc(C(F)F)ccn2)nc(-c2cn(CC3OC(=O)NC3C)nn2)c1` (single isomer, unassigned) [Example 7.43, 5-{[4-(6-{[4-(difluoromethyl)pyridin-2-yl]amino}-4-methylpyridin-2-yl)-1H-1,2,3-triazol-1-yl]methyl}-4-methyl-1,3-oxazolidin-2-one], for which the IC50 was 3.8 nM. To `Cc1cc(Nc2cc(C(F)(F)F)ccn2)nc(-c2cn(C3CCC(C(=O)O)C(C)(C)C3)nn2)c1` (single isomer, unassigned) [Example 3.7, (R or S) 2,2-dimethyl-4-[4-(4-methyl-6-{[4-(trifluoromethyl)pyridin-2-yl]amino}pyridin-2-yl)-1H-1,2,3-triazol-1-yl]cyclohexanecarboxylic acid] belongs 3.7 nM; to `Cc1cc(Nc2cc(C(F)(F)F)ccn2)nc(-c2cn(C3CCC(C(N)=O)C(C)(C)C3)nn2)c1` (single isomer, unassigned) [Example 1.4, 2,2-dimethyl-4-[4-(4-methyl-6-{[4-(trifluoromethyl)pyridin-2-yl]amino}pyridin-2-yl)-1H-1,2,3-triazol-1-yl]cyclohexanecarboxamide], 3.8 nM.

Regarding `Cc1cc(Nc2cc(C(F)(F)F)ccn2)nc(-c2cn(C3CCC(C(N)=O)C(C)(C)C3)nn2)c1` (single isomer, unassigned) [Example 1.8, 2,2-dimethyl-4-[4-(4-methyl-6-{[4-(trifluoromethyl)pyridin-2-yl]amino}pyridin-2-yl)-1H-1,2,3-triazol-1-yl]cyclohexanecarboxamide], the IC50 was 5.8 nM.

On to `Cc1ccnc(Nc2cc(C)cc(-c3cn(CC(O)C(F)(F)F)nn3)n2)c1` (racemic) [Example 5.17, 1,1,1-trifluoro-3-(4-{4-methyl-6-[(4-methylpyridin-2-yl)amino]pyridin-2-yl}-1H-1,2,3-triazol-1-yl)propan-2-ol], for which the IC50 is 128 nM. To `Cc1cc(Nc2cc(C(F)(F)F)ccn2)nc(-c2nnc[nH]2)c1` [Example 16.2, 4-methyl-6-(4H-1,2,4-triazol-3-yl)-N-[4-(trifluoromethyl)pyridin-2-yl]pyridin-2-amine] belongs 328 nM; to `Cc1cc(Nc2cc(C(F)(F)F)ccn2)nc(-c2cn(CC3(O)CCC(C(=O)O)C(C)(C)C3)nn2)c1` (single isomer, unassigned) [Example 3.1, (R or S) 4-hydroxy-2,2-dimethyl-4-{[4-(4-methyl-6-{[4-(trifluoromethyl)pyridin-2-yl]amino}pyridin-2-yl)-1H-1,2,3-triazol-1-yl]methyl}cyclohexanecarboxylic acid], 60.7 nM; to `Cc1cc(Nc2cc(C(F)(F)F)ccn2)nc(-c2cn(CC3CCCCO3)nn2)c1` (racemic) [Example 5.4, 4-methyl-6-[1-(tetrahydro-2H-pyran-2-ylmethyl)-1H-1,2,3-triazol-4-yl]-N-[4-(trifluoromethyl)pyridin-2-yl]pyridin-2-amine], 63.5 nM. To `Cc1cc(Nc2cc(C(F)(F)F)ccn2)nc(-c2c[nH]nn2)c1` [Example 5.101, 4-methyl-6-(1H-1,2,3-triazol-4-yl)-N-[4-(trifluoromethyl)pyridin-2-yl]pyridin-2-amine] belongs 25.2 nM; to `COC(=O)[C@@H](C)Cn1cc(-c2cc(C)cc(Nc3cc(C(F)(F)F)ccn3)n2)nn1` [Example 5.86, methyl (2S)-2-methyl-3-[4-(4-methyl-6-{[4-(trifluoromethyl)pyridin-2-yl]amino}pyridin-2-yl)-1H-1,2,3-triazol-1-yl]propanoate], 66.4 nM; to `Cc1cc(Nc2nccc(C(F)(F)F)n2)cc(-c2cn(Cc3ccc(C(=O)O)cc3)nn2)c1` [Example 5.21, 4-{[4-(3-methyl-5-{[4-(trifluoromethyl)pyrimidin-2-yl]amino}phenyl)-1H-1,2,3-triazol-1-yl]methyl}benzoic acid], 3.3 nM.

Take `Cc1cc(Nc2cc(C(F)(F)F)ccn2)nc(-c2cn(C(C)C(=O)NCCc3ccccc3Oc3ccccc3)nn2)c1` (centres unmarked) [Example 1.42, 2-[4-(4-methyl-6-{[4-(trifluoromethyl)pyridin-2-yl]amino}pyridin-2-yl)-1H-1,2,3-triazol-1-yl]-N-[2-(2-phenoxyphenyl)ethyl]propanamide]: the IC50 was 912 nM. The value for `Cc1cc(Nc2nccc(C(F)(F)F)n2)cc(-c2cn(CC3CCO3)nn2)c1` (racemic) [Example 5.50, N-{3-methyl-5-[1-(oxetan-2-ylmethyl)-1H-1,2,3-triazol-4-yl]phenyl}-4-(trifluoromethyl)pyrimidin-2-amine] was 504 nM; that for `COC(=O)C1CCC(n2cc(-c3cc(C)cc(Nc4cc(C(F)(F)F)ccn4)n3)nn2)c2ccccc21` (racemic) [Example 5.25, methyl 4-[4-(4-methyl-6-{[4-(trifluoromethyl)pyridin-2-yl]amino}pyridin-2-yl)-1H-1,2,3-triazol-1-yl]-1,2,3,4-tetrahydronaphthalene-1-carboxylate] was 525 nM; that for `Cc1cc(Nc2cc(C(F)(F)F)ccn2)nc(-c2cn(CC(O)CN)nn2)c1` (centres unmarked) [Example 4.22, 1-amino-3-[4-(4-methyl-6-{[4-(trifluoromethyl)pyridin-2-yl]amino}pyridin-2-yl)-1H-1,2,3-triazol-1-yl]propan-2-ol] was 3 nM. The value for `COC(=O)c1ccc(C(O)Cn2cc(-c3cc(C)cc(Nc4cc(C(F)(F)F)ccn4)n3)nn2)cc1` (centres unmarked) [Example 4.17, methyl 4-{1-hydroxy-2-[4-(4-methyl-6-{[4-(trifluoromethyl)pyridin-2-yl]amino}pyridin-2-yl)-1H-1,2,3-triazol-1-yl]ethyl}benzoate] was 26.6 nM; that for `Cc1cc(Nc2nccc(C(F)(F)F)n2)cc(-c2cn([C@@H]3CCC[C@H](O)C3)nn2)c1` (racemic) [Example 17.1, Racemic cis-3-(4-(3-methyl-5-((4-(trifluoromethyl)pyrimidin-2-yl)amino)phenyl)-1H-1,2,3-triazol-1-yl)cyclohexanol] was 55.4 nM; that for `Cc1cc(Nc2cc(C(F)(F)F)ccn2)nc(-c2cn(C3CN(C(=O)CCC(N)=O)CC3O)nn2)c1` (centres unmarked) [Example 13.5, 4-{-3-hydroxy-4-[4-(4-methyl-6-{[4-(trifluoromethyl)pyridin-2-yl]amino}pyridin-2-yl)-1H-1,2,3-triazol-1-yl]pyrrolidin-1-yl}-4-oxobutanamide] was 15 nM. The value for `Cc1cc(Nc2cc(C(F)F)ccn2)nc(-c2cn(C(C)C(C)(O)CO)nn2)c1` (single isomer, unassigned) [Example 30.5, 3-[4-(6-{[4-(difluoromethyl)pyridin-2-yl]amino}-4-methylpyridin-2-yl)-1H-1,2,3-triazol-1-yl]-2-methylbutane-1,2-diol] was 2.7 nM; that for `Cc1cc(Nc2nccc(C(F)F)n2)cc(-c2cn(CC3CNCCO3)nn2)c1` (single isomer, unassigned) [Example 22.2, 4-(difluoromethyl)-N-(3-methyl-5-(1-(morpholin-2-ylmethyl)-1H-1,2,3-triazol-4-yl)phenyl) pyrimidin-2-amine] was 1.7 nM. For `Cc1cc(Nc2cc(C(F)(F)F)ccn2)nc(-c2cn(C(C)C(=O)N3CCc4c([nH]c5ccccc45)C3)nn2)c1` (stereo not drawn) [Example 1.31, 4-methyl-6-{1-[1-methyl-2-oxo-2-(1,3,4,9-tetrahydro-2H-beta-carbolin-2-yl)ethyl]-1H-1,2,3-triazol-4-yl}-N-[4-(trifluoromethyl)pyridin-2-yl]pyridin-2-amine], the IC50 stood at 320 nM.
